{"source": "patent US20260315486A1", "about": "“ALECTINIB FOR THE TREATMENT OF ALK FUSION-POSITIVE SOLID OR CNS TUMOURS” (Hoffmann-La Roche Inc., priority 2023, published 2026)", "key": {"[1]": {"test_system": "ALK fusion-positive solid or CNS tumours", "assay": "Paediatric clinical trial, Part 1 safety run-in: investigator-reported tumour response (RANO / RECIST v1.1 / INRC)", "type": "in vivo, human (paediatric patients)", "description": "The study consists of three parts, all enrolling paediatric participants with solid or CNS tumours with known ALK fusion for whom prior treatment has proven to be ineffective or for whom there is no satisfactory treatment available: • Part 1, dose confirmation and safety run-in: to identify the RP2D for paediatric participants, achieving the exposure observed in the adult population • This portion will consist of a safety run-in with a minimum of 6 participants (up to approximately 18 participants) to assess the safety, tolerability, and pharmacokinetics of alectinib in the paediatric population. The initial paediatric dose will be assessed and refined by modelling and simulation prospectively. • Part 2, initial expansion: to evaluate the safety and preliminary efficacy of alectinib in newly enrolled paediatric participants treated at the paediatric RP2D. A minimum of 10 participants will be enrolled in this part of the study. If 4 or more participants achieve an objective response to alectinib (as described in Part 2, below), additional expansion will be performed. • Part 3, additional expansion: This portion of the study will enroll approximately 14 additional paediatric participants. An integrated efficacy analysis accounting for every participant treated at paediatric RP2D across all cohorts will be used for the confirmation of the efficacy of alectinib.\n(§1) Alectinib will be administered orally or via feeding tube to participants BID on Days 1-28 of each 28-day cycle. All participants will be closely monitored for adverse events (regardless of relationship to study drug) throughout the study and for at least 28 days after the final dose of study treatment or until initiation of a new anti-cancer therapy, whichever occurs first.\nResponse will be assessed by the investigator on the basis of physical examinations, computed tomography (CT) scans, and other modalities where relevant (e.g., magnetic resonance imaging [MRI] scans, brain scans, bone marrow examinations, fluorodeoxyglucose-positron emission tomography (FDG-PET), metaiodobenzoguanidine [MIBG] scan), according to RANO, INRC, and RECIST v1.1 (see below). Tumour assessment imaging should include all areas of known disease.\nAn objective response should be confirmed by repeat assessments ≥4 weeks after initial documentation. The same radiographic procedure used to assess disease sites at screening should be used throughout the study (e.g., the same contrast protocol for CT scans). To the extent that is feasible, assessments should be performed by the same evaluator to ensure internal consistency across visits.\nSelected sections from the Response Evaluation Criteria in Solid Tumors (RECIST), Version 1.1 (Eisenhauer et al., 2009, Eur J Cancer, 45:228-47) are presented below, with slight modifications.\nAntitumor activity will be assessed based on clinical and radiographic evidence as described by the INRC (Park et al. 2017, Clin Oncol; 35:2580-7).\nAntitumor activity will be assessed based on clinical and radiographic evidence as described by the RANO criteria.\nThe primary efficacy endpoint is ORR in participants treated at the paediatric RP2D, as assessed by BICR, defined as the proportion of participants with an objective response. The objective response for individual participants will be assessed per RECIST v1.1 for participants with extracranial tumours, and per RANO for participants with primary CNS tumours, and INRC for neuroblastoma. An objective response is defined as a CR or PR per disease-specific response criteria, confirmed ≥4 weeks apart in two separate tumour assessments. Participants not meeting these criteria (including participants without a postbaseline tumour assessment) will be considered non-responders.\nPatients with ALK fusion-positive solid or CNS tumours for whom prior treatment has proven to be ineffective or for whom there is no satisfactory treatment available, less than 18 years of age, were eligible. […]"}, "[2]": {"assay": "Paediatric clinical trial, Part 1 safety run-in: safety and tolerability (dose-limiting toxicities, adverse events)", "type": "in vivo, human (paediatric patients)", "description": "as §1\nOwing to the limitations of predicting exposure in children who are <2 years old, before enrolment of participants <2 years old, the investigator must discuss a participant's case with the Medical Monitor until at least 3 participants who are ≥2-6 years old have completed one cycle of treatment. The first participant enrolled must complete at least 8 days of treatment without a DLT before subsequent participants can enroll. If a dose adjustment is required because of toxicity, the same approach will be taken for the first participant at the new dose level. Participants will be closely monitored for adverse events during a DLT assessment window of one cycle (28 days). Participants who discontinue from the study prior to completing the DLT assessment window or who complete <80% (i.e., […]) of the prescribed therapy for that cycle for reasons other than a DLT will be considered non-evaluable. DLT non-evaluable participants will be replaced, unless the Medical Monitor determines that replacement is not necessary for a dose adjustment decision. The Medical Monitor will review all participants who take prohibited therapies, foods, or supplements or who receive supportive care during the DLT assessment window that would confound the evaluation of DLTs (not including supportive care described below as part of the DLT definition) to determine DLT evaluability and whether such participants will be replaced.\nDuring the safety run-in phase, any one of the following events will be considered a DLT if it occurs during the DLT assessment window and is assessed by the investigator to be related or possibly related to alectinib (rules for attributing causality are defined below in ‘Adverse events’). Adverse events identified as DLTs, as defined below, must be reported to the Sponsor within 24 hours.\nThe following will be considered as a DLT: • Any treatment-related death • Grade 4 neutropenia (ANC<500 cells/mm^3 which is equivalent to ANC<0.5×10^9/L) lasting at least 7 days • Febrile neutropenia: ANC<1000 cells/mm^3 (which is equivalent to ANC<1×10^9/L) with a single temperature of >38.3° C. (101° F.) or a sustained temperature of ≥38° C. (100.4° F.) for more than 1 hour • Grade 4 anaemia • Grade 4 thrombocytopenia (i.e., platelet count <25.0×10^9/L) or Grade 3 thrombocytopenia associated with clinically significant bleeding or any thrombocytopenia requiring platelet transfusion. • Of note, the post-surgical platelet threshold for platelets transfusion could be higher. […]"}, "[3]": {"conditions": "Peters et al., 2017; cited from earlier work"}, "[4]": {"test_system": "FGFR2", "conditions": "stated without data; cited from earlier work"}, "[5]": {"conditions": "stated as known; may result in bradycardia; cited from earlier work"}, "[6]": {"conditions": "7 patients evaluable for efficacy (ALCL patient excluded), investigator, data cut off Jun. 12, 2023"}, "[7]": {"conditions": "7 patients evaluable for efficacy, investigator"}, "[8]": {"conditions": "8 patients, Part 1 safety run-in"}}}
{"smiles": "CCc1cc2c(cc1N1CCC(N3CCOCC3)CC1)C(C)(C)c1[nH]c3cc(C#N)ccc3c1C2=O", "note": "[Alectinib, 9-ethyl-6,6-dimethyl-8-(4-morpholin-4-yl-piperidin-1-yl)-11-oxo-6,11-dihydro-5H-benzo[b]carbazole-3-carbonitrile]", "values": [{"measurement": "Best Overall Response: responders (CR + PR), number of patients", "setting": "[1]; [6]", "result": 4, "unit": "patients"}, {"measurement": "Best Overall Response: responders (CR + PR), percent of patients", "setting": "[1]; [6]", "result": 57.1, "unit": "%"}, {"measurement": "Best Overall Response: CR, number of patients", "setting": "[1]; [7]", "result": 1, "unit": "CR"}, {"measurement": "Best Overall Response: PR, number of patients", "setting": "[1]; [7]", "result": 3, "unit": "PR"}, {"measurement": "Best Overall Response: Stable Disease, number of patients", "setting": "[1]; [7]", "result": 2, "unit": "patients"}, {"measurement": "Best Overall Response: Stable Disease, percent of patients", "setting": "[1]; [7]", "result": 28.6, "unit": "%"}, {"measurement": "Best Overall Response (Investigator): Complete Response (CR), number of patients", "setting": "[1]; N = 8, all enrolled patients", "result": 1}, {"measurement": "Best Overall Response (Investigator): Partial Response (PR), number of patients", "setting": "[1]; N = 8, all enrolled patients", "result": 4}, {"measurement": "Best Overall Response (Investigator): Progressive Disease (PD), number of patients", "setting": "[1]; N = 8, all enrolled patients", "result": 0}, {"measurement": "Best Overall Response (Investigator): Stable Disease (SD), number of patients", "setting": "[1]; N = 8, all enrolled patients", "result": 2}, {"measurement": "Best Overall Response (Investigator): Total Responders, number of patients", "setting": "[1]; N = 8, all enrolled patients", "result": 5}, {"measurement": "Best Overall Response (Investigator, %): Complete Response (CR)", "setting": "[1]; N = 8, all enrolled patients", "result": 12.5, "unit": "%"}, {"measurement": "Best Overall Response (Investigator, %): Partial Response (PR)", "setting": "[1]; N = 8, all enrolled patients", "result": 50.0, "unit": "%"}, {"measurement": "Best Overall Response (Investigator, %): Progressive Disease (PD)", "setting": "[1]; N = 8, all enrolled patients", "result": 0.0, "unit": "%"}, {"measurement": "Best Overall Response (Investigator, %): Total Responders", "setting": "[1]; N = 8, all enrolled patients", "result": 62.5, "unit": "%"}, {"measurement": "Response, in words", "setting": "[1]; conclusion, paediatric patients with ALK-fusion positive solid or CNS tumours", "result": "majority of patients experiencing a response"}, {"measurement": "AE-related deaths", "setting": "[2]; [8]", "result": "no AE-related deaths"}, {"measurement": "Dose Limiting Toxicities", "setting": "[2]; [8]", "result": "No Dose Limiting Toxicities were reported"}, {"measurement": "New safety signals", "setting": "[2]; [8]", "result": "no new safety signals detected"}, {"measurement": "Patients with Grade ≥3 related AE", "setting": "[2]; [8]", "result": 2, "unit": "patients"}, {"measurement": "Patients with a related Adverse Event (AE)", "setting": "[2]; [8]", "result": "Seven"}, {"measurement": "Tolerability", "setting": "[2]; paediatric patients with ALK-fusion positive solid or CNS tumours", "result": "generally well tolerated"}, {"measurement": "CNS penetration", "setting": "[3]", "result": "CNS penetrant"}, {"measurement": "Inhibitory activity on FGFR2", "setting": "[4]", "result": "no inhibitory activity"}, {"measurement": "Negative chronotropic effect", "setting": "[5]", "result": "known negative chronotropic effect of alectinib that may result in bradycardia"}]}
